Laboratory results from patent publication US3937657A, “Electrowinning of copper” (Anumin Pty. Limited, priority 1971, dated 1976).
Where two headings read alike, the source gives them in different places. Values belong to the molecule of their own block, whether it stands above or below them.

Key:
[1] = Oxidation of stirred cuprous sulphate solutions in acidified acetonitrile-water mixtures under oxygen (Table 2); type: physicochemical; conditions: 1.5% wt Cu^+, O2 1 atm
Text: Effect of Nitrile and Acid Concentration.

[2] = acidified acetonitrile-water (10.8% ch3cn)
Protocol: Solubilities of salts in acidified [2% v/v H2 SO4 ] acetonitrile-water mixtures at 25°C.

[3] = Hydrolysis/decomposition of nitriles in acidified solutions; type: physicochemical
[4] = Solubilities of salts in acidified [2% v/v H2SO4] acetonitrile-water mixtures at 25°C (Table 3); conditions: 2% v/v H2SO4, water
[5] = 2 molar sulphuric acid, 100°C; reported; cited from earlier work
[6] = Solubility of sulphur in refluxing acetonitrile-water-sulphuric acid; type: physicochemical; conditions: refluxing 50% acetonitrile, 45% water, 5% sulphuric acid
Protocol: c. Sulphur dissolved in refluxing 50% acetonitrile, 45% water, 5% sulphuric acid to the extent of about 0.05 gms/100 ml.

Structure (SMILES): O=S(=O)([O-])[O-].[Cu+].[Cu+] [Cu2 SO4, cuprous sulphate]
Time for 30% of theoretical O2 uptake ([1]; 10% vol CH3CN, 5% vol H2SO4, 25°C): 95 min | Time for 30% of theoretical O2 uptake ([1]; 30% vol CH3CN, 2.5% vol H2SO4, 25°C): 330 min | Time for 30% of theoretical O2 uptake ([1]; 30% vol CH3CN, 5% vol H2SO4, 25°C): 300 min | Time for 30% of theoretical O2 uptake ([1]; 30% vol CH3CN, 10% vol H2SO4, 25°C): 375 min | Time for 30% of theoretical O2 uptake ([1]; 50% vol CH3CN, 5% vol H2SO4, 25°C): 340 min

Structure (SMILES): O.O.O.O.O.O.O.O.O.O=S(=O)([O-])[O-].O=S(=O)([O-])[O-].O=S(=O)([O-])[O-].[Fe+3].[Fe+3] [Fe2 (SO4).9H2 O]
Solubility (MX) [2]: 325 mg/mL

Structure (SMILES): CC#N [Acetonitrile, acetonitrile]
hydrolysed to acetic acid and ammonium acetate within ([3]; 2 molar sulphuric acid, sealed tube, 100°C): ≤ 24 h | loss of acetonitrile on heating ([3]; acetonitrile, water, cuprous sulphate and 1N sulphuric acid, sealed tubes, 50°C, 2 months): had not lost detectable amounts

Structure (SMILES): O=S(=O)([O-])[O-].[Cd+2] [Cd SO4.8H2 O]
Solubility (MX) ([4]; 15% v/v CH3CN): 492 mg/mL

Structure (SMILES): N#CCO [cyanohydrin of formaldehyde]
decomposition in the nitrile suitability tests ([3]; water and suitable acids, cuprous salts): decomposed rapidly

Structure (SMILES): O.O.O.O.O.O.O.O=S(=O)([O-])[O-].[Ni+2] [NiSO4.7H2 O]
Solubility (MX) ([4]; 16.6% v/v CH3CN): 231 mg/mL

Structure (SMILES): N#CCCO [2-hydroxycyanoethane]
rate of hydrolysis compared with acetonitrile [5]: comparable rate

Sulphur dissolved [6]: about 0.05 gms/100 ml
Structure (SMILES): S1SSSSSSS1 [Sulphur, sulphur]
